# Laboratory results reported in patent US10173991B2, “Sulfone amide linked benzothiazole inhibitors of endothelial lipase” (BRISTOL-MYERS SQUIBB COMPANY, priority 2014, dated 2019).
# Biological target: Endothelial lipase (EL) (Homo sapiens (Human), UniProt Q9Y5X9)
# Experiment: Endothelial lipase (EL) enzymatic assay with fluorescent substrate A10070 in DMPG vesicles
# Type: biochemical
# In short: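 Substrate A10070 sits in sonicated DMPG vesicles at 0.11 mole fraction. Lipase and compound preincubated 30 min, 37° C, in HEPES pH 8.0 buffer with CaCl2.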
# Endothelial lipase (EL), sequence (Q9Y5X9 21-500): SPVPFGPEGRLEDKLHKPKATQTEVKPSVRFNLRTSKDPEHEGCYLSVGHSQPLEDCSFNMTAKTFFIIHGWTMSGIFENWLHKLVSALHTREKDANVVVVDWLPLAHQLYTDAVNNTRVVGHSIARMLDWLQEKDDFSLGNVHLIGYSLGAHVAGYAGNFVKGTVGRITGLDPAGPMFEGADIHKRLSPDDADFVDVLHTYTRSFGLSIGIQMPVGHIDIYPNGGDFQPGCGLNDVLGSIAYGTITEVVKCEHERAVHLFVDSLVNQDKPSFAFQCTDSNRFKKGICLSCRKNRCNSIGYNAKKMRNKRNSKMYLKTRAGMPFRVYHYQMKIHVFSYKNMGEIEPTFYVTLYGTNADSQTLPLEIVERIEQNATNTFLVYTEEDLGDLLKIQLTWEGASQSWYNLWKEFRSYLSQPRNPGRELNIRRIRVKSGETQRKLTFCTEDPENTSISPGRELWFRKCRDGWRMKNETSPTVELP
row,SMILES,IC50 [nM]
1,"COC(=O)Nc1ccc(-c2cc3sc(C(C(=O)NCC(=O)NC4CC4)S(=O)(=O)c4ccc(F)cc4)nc3cc2F)cc1 (stereo not shown) [Example 478, methyl N-{4-[2-({[(cyclopropyl-carbamoyl)methyl]carbamoyl}(4-fluorobenzene-sulfonyl)methyl)-5-fluoro-1,3-benzothiazol-6-yl]phenyl}carbamate]",2
2,"Cc1cc(-c2cc3sc(C(C(=O)NCC(=O)NC4CC4)S(=O)(=O)C(C)C)nc3cc2F)cnn1 (stereo not shown) [Example 240, N-[(cyclopropylcarbamoyl)methyl]-2-[5-fluoro-6-(6-methylpyridazin-4-yl)-1,3-benzothiazol-2-yl]-2-(propane-2-sulfonyl) acetamide]",192
3,"O=C(CNC(=O)C(c1nc2cc(F)c(-c3ccc(NC(=O)OCc4ccccc4)cc3)cc2s1)S(=O)(=O)CC1CC1)NC1CC1 (stereo not shown) [Example 51, benzyl N-{4-[2-({[(cyclopropyl-carbamoyl)methyl]carbamoyl} (cyclopropyl-methanesulfonyl)methyl)-5-fluoro-1,3-benzothiazol-6-yl]phenyl} carbamate]",3
4,"O=C(CNC(=O)C(c1nc2cc(F)c(-c3ccc(NC(=O)OCc4ccccc4)cc3)cc2s1)S(=O)(=O)CCCC(F)(F)F)NC1CC1 (stereo not shown) [Example 46, benzyl N-{4-[2-({[(cyclopropyl-carbamoyl)methyl]carbamoyl}(4,4,4-trifluorobutane-sulfonyl)methyl)-5-fluoro-1,3-benzothiazol-6-yl]phenyl}carbamate]",2
5,"CC(C)S(=O)(=O)C(C(=O)NCC(=O)NC1CC1)c1nc2cc(F)c(-c3ccc(NC(=O)OCc4ccccc4)cc3)cc2s1 (stereo not shown) [Example 38, benzyl N-{4-[2-({[(cyclopropyl-carbamoyl)methyl]carbamoyl} (propane-2-sulfonyl)methyl)-5-fluoro-1,3-benzothiazol-6-yl]phenyl} carbamate]",2
6,"O=C(CNC(=O)C(c1nc2cc(F)c(-c3ccc(-n4ccccc4=O)cc3)cc2s1)S(=O)(=O)c1ccc(F)cc1)NC1CC1 (stereo not shown) [Example 479, N-[(cyclopropyl-carbamoyl)methyl]-2-{5-fluoro-6-[4-(2-oxo-1,2-dihydropyridin-1-yl)phenyl]-1,3-benzothiazol-2-yl}-2-(4-fluorobenzene-sulfonyl)acetamide]",9
7,"CS(=O)(=O)C(C(=O)NCC(=O)NC1CC1)c1nc2cc(F)c(-c3ccc(NC(=O)OCc4ccccc4)nc3)cc2s1 (stereo not shown) [Example 552, benzyl N-{5-[2-({[(cyclopropyl-carbamoyl)methyl]carbamoyl} (methanesulfonyl)methyl)-5-fluoro-1,3-benzothiazol-6-yl]pyridin-2-yl}carbamate]",1
8,"CN(C)S(=O)(=O)C(C(=O)NCC(=O)NC1CC1)c1nc2cc(F)c(-c3ccc(-c4ccccc4)nc3)cc2s1 (stereo not shown) [Example 507, N-[(cyclopropyl-carbamoyl)methyl]-2-(dimethyl-sulfamoyl)-2-[5-fluoro-6-(6-phenylpyridin-3-yl)-1,3-benzothiazol-2-yl]acetamide]",16
9,"Cc1cc(-c2cc3sc(C(C(=O)NCC(=O)NC4CC4)S(=O)(=O)C(C)C)nc3cc2F)ccn1 (stereo not shown) [Example 245, N-[(cyclopropyl-carbamoyl)methyl]-2-[5-fluoro-6-(2-methylpyridin-4-yl)-1,3-benzothiazol-2-yl]-2-(propane-2-sulfonyl)acetamide]",12
10,"CC(C)S(=O)(=O)C(C(=O)NCC(=O)NC1CC1)c1nc2cc(C(F)(F)F)c(-c3ccc(C(=O)N4CCOCC4)cc3)cc2s1 (stereo not shown) [Example 168, N-[(cyclopropyl-carbamoyl)methyl]-2-{6-[4-(morpholine-4-carbonyl)phenyl]-5-(trifluoromethyl)-1,3-benzothiazol-2-yl}-2-(propane-2-sulfonyl) acetamide]",24
11,"O=C(CNC(=O)C(c1nc2ccc(-c3ccc4c(c3)CNC4=O)cc2s1)S(=O)(=O)c1cccnc1)NC1CC1 (stereo not shown) [Example 468, N-[(cyclopropyl-carbamoyl)methyl]-2-[6-(1-oxo-2,3-dihydro-1H-isoindol-5-yl)-1,3-benzothiazol-2-yl]-2-(pyridine-3-sulfonyl) acetamide]",6
12,"CC(=O)NCc1ccc(-c2ccc3sc(C(C(=O)NCC(=O)NC4CC4)S(=O)(=O)c4ccccc4)nc3c2)cc1 (stereo not shown) [Example 436, 2-(benzenesulfonyl)-N-[(cyclopropyl-carbamoyl)methyl]-2-{5-[4-(acetamidomethyl)phenyl]-1,3-benzothiazol-2-yl} acetamide]",13

# Second part, the compound after the results:
row,IC50 [nM],SMILES
1,5,"COCCS(=O)(=O)C(C(=O)NCC(=O)NC1CC1)c1nc2cc(F)c(-c3ccc4cnn(C)c4c3)cc2s1 (stereo not shown) [Example 198, N-[(cyclopropyl-carbamoyl)methyl]-2-[5-fluoro-6-(1-methyl-1H-indazol-6-yl)-1,3-benzothiazol-2-yl]-2-(2-methoxyethane-sulfonyl) acetamide]"
2,1,"COCCS(=O)(=O)C(C(=O)NCC(=O)NC1CC1)c1nc2cc(F)c(-c3ccc(-n4ncc(C(N)=O)c4N)cc3)cc2s1 (stereo not shown) [Example 586, 5-amino-1-{4-[2-({[(cyclopropyl-carbamoyl)methyl]carbamoyl}(2-methoxyethane-sulfonyl)methyl)-5-fluoro-1,3-benzothiazol-6-yl]phenyl}-1H-pyrazole-4-carboxamide]"
3,3,"COCCS(=O)(=O)C(C(=O)NCC(=O)NC1CC1)c1nc2cc(-c3ccccc3)c(F)cc2s1 (stereo not shown) [Example 612, N-[(cyclopropyl-carbamoyl)methyl]-2-(6-fluoro-5-phenyl-1,3-benzothiazol-2-yl)-2-(2-methoxyethane-sulfonyl)acetamide]"
4,155,"COCCS(=O)(=O)C(C(=O)NCC(=O)NC1CC1)c1nc2ccc(-c3cnc(C(F)(F)F)nc3)cc2s1 (stereo not shown) [Example 301, N-[(cyclopropyl-carbamoyl)methyl]-2-(2-methoxyethane-sulfonyl)-2-{6-[2-(trifluoromethyl)pyrimidin-5-yl]-1,3-benzothiazol-2-yl}acetamide]"
5,215,"COCCS(=O)(=O)C(C(=O)NCC(=O)NC1CC1)c1nc2cc(-c3ccccc3)ccc2s1 (stereo not shown) [Example 339, N-[(cyclopropyl-carbamoyl)methyl]-2-(2-methoxyethane-sulfonyl)-2-(5-phenyl-1,3-benzothiazol-2-yl)acetamide]"
6,6,"COCCS(=O)(=O)C(C(=O)NCC(=O)NC1CC1)c1nc2cc(-c3cnc(C)nc3)c(F)cc2s1 (stereo not shown) [Example 346, N-[(cyclopropyl-carbamoyl)methyl]-2-[6-fluoro-5-(2-methylpyrimidin-5-yl)-1,3-benzothiazol-2-yl]-2-(2-methoxyethane-sulfonyl)acetamide]"
7,17,"COCCS(=O)(=O)C(C(=O)NCC(=O)NC1CC1)c1nc2cc(C(F)(F)F)c(-c3ccc(C4CC4)nc3)cc2s1 (stereo not shown) [Example 164, N-[(cyclopropyl-carbamoyl)methyl]-2-[6-(6-cyclopropyl-pyridin-3-yl)-5-(trifluoromethyl)-1,3-benzothiazol-2-yl]-2-(2-methoxyethane-sulfonyl) acetamide]"
8,160,"COCCS(=O)(=O)C(C(=O)NCC(=O)NC1CC1)c1nc2ccc(-c3ccc(F)nc3F)cc2s1 (stereo not shown) [Example 302, N-[(cyclopropyl-carbamoyl)methyl]-2-[6-(2,6-difluoropyridin-3-yl)-1,3-benzothiazol-2-yl]-2-(2-methoxyethane-sulfonyl)acetamide]"
9,9,"COCCS(=O)(=O)C(C(=O)NCC(=O)NC1CC1)c1nc2cc(F)c(-c3ccc4c(c3)CCCN4C(=O)OC(C)(C)C)cc2s1 (stereo not shown) [Example 418, tert-butyl 6-[2-({[(cyclopropyl-carbamoyl)methyl]carbamoyl}(2-methoxyethane-sulfonyl)methyl)-5-fluoro-1,3-benzothiazol-6-yl]-1,2,3,4-tetrahydro-quinoline-1-carboxylate]"
10,98,"COCCS(=O)(=O)C(C(=O)NCC(=O)NC1CC1)c1nc2ccc(-c3ccc4c(c3)C(=O)NC4)cc2s1 (stereo not shown) [Example 344, N-[(cyclopropyl-carbamoyl)methyl]-2-(2-methoxyethane-sulfonyl)-2-[6-(3-oxo-2,3-dihydro-1H-isoindol-5-yl)-1,3-benzothiazol-2-yl]acetamide]"
11,108,"COCCNC(=O)CNC(=O)C(c1nc2ccc(-c3ccc(F)nc3)cc2s1)S(=O)(=O)CCOC (stereo not shown) [Example 379, 2-[6-(6-fluoropyridin-3-yl)-1,3-benzothiazol-2-yl]-2-(2-methoxyethane-sulfonyl)-N-{[(2-methoxyethyl)carbamoyl]methyl} acetamide]"
12,7,"CN(C)S(=O)(=O)C(C(=O)NCC(=O)NC1CC1)c1nc2ccc(-c3ccc(F)nc3)cc2s1 (stereo not shown) [Example 484, N-[(cyclopropyl-carbamoyl)methyl]-2-(dimethyl-sulfamoyl)-2-[6-(6-fluoropyridin-3-yl)-1,3-benzothiazol-2-yl]acetamide]"
13,51,"COCCS(=O)(=O)C(C(=O)NCC(=O)NC1CC1)c1nc2cc(Cl)c(-c3ccn(C)c(=O)c3)cc2s1 (stereo not shown) [Example 108, 2-[5-chloro-6-(1-methyl-2-oxo-1,2-dihydropyridin-4-yl)-1,3-benzothiazol-2-yl]-N-[(cyclopropyl-carbamoyl)methyl]-2-(2-methoxyethane-sulfonyl)acetamide]"
14,52,"COCCS(=O)(=O)C(C(=O)NCC(=O)NC1CC1)c1nc2cc(-c3ccc(-n4cnnn4)cc3)c(F)cc2s1 (stereo not shown) [Example 132, N-[(cyclopropyl-carbamoyl)methyl]-2-{6-fluoro-5-[4-(1H-1,2,3,4-tetrazol-1-yl)phenyl]-1,3-benzothiazol-2-yl}-2-(2-methoxyethane-sulfonyl) acetamide]"
15,33,"CCOc1ncccc1-c1ccc2nc(C(C(=O)NCC(=O)NC3CC3)S(=O)(=O)CCOC)sc2c1 (stereo not shown) [Example 293, N-[(cyclopropyl-carbamoyl)methyl]-2-[6-(2-ethoxypyridin-3-yl)-1,3-benzothiazol-2-yl]-2-(2-methoxyethane-sulfonyl)acetamide]"
16,4,"COCCS(=O)(=O)C(C(=O)NCC(=O)NC1CC1)c1nc2cc(-c3cccc(C(=O)NCC(F)(F)F)c3)ccc2s1 (stereo not shown) [Example 394, 3-[2-({[(cyclopropyl-carbamoyl)methyl]carbamoyl}(2-methoxyethane-sulfonyl)methyl)-1,3-benzothiazol-5-yl]-N-(2,2,2-trifluoroethyl) benzamide]"
